Experimental data: ChEMBL document CHEMBL4831542, “Design, Synthesis, and Biological Evaluation of Icaritin Derivatives as Novel Putative DEPTOR Inhibitors for Multiple Myeloma Treatment” (J Med Chem, 2021)
Active and inactive are the calls of the source. The calls are words filed in the database; no cut-off is given here.

What was measured:
[1] = system: RPMI-8226; assay: cells; conditions: Homo sapiens, RPMI-8226, 72 h
Description: Antiproliferative activity against human RPMI-8226 cells assessed as inhibition of cell proliferation incubated for 72 hrs by CCK8 assay

[2] = system: RPMI-8226; assay: Antiproliferative activity against human RPMI8226 cells assessed as inhibition of cell proliferation at 250 uM incubated for 72 hrs by CCK8 assay; format: functional
[3] = system: RPMI-8226; assay: Antiproliferative activity against human RPMI8226 cells assessed as inhibition of cell proliferation at 125 uM incubated for 72 hrs by CCK8 assay; format: functional
[4] = system: RPMI-8226; assay: Induction of apoptosis in human RPMI8226 cells assessed as necrotic cells at 2 uM measured after 36 hrs by Annexin V-FITC based flow cytometry (reference value: 0.03%); format: functional
[5] = system: RPMI-8226; assay: Cell cycle arrest in human RPMI8226 cells assessed as accumulation of cells at G2 phase at 4 uM measured after 36 hrs by flow cytometry (reference value: 27.03%); format: functional
[6] = system: RPMI-8226; assay: Induction of apoptosis in human RPMI8226 cells assessed as viable cells at 4 uM measured after 36 hrs by Annexin V-FITC based flow cytometry (reference value: 91.68%); format: functional; conditions: read-out: Activity
[7] = system: RPMI-8226; assay: Induction of apoptosis in human RPMI8226 cells assessed as early apoptotic cells at 4 uM measured after 36 hrs by Annexin V-FITC based flow cytometry (reference value: 7.48%); format: functional
[8] = system: U-266; assay: cells; conditions: Homo sapiens, U-266, 72 h
Description: Antiproliferative activity against human U266 cells assessed as inhibition of cell proliferation incubated for 72 hrs by CCK8 assay

[9] = system: MOLT-4; assay: cells; conditions: Homo sapiens, MOLT-4, 72 h
Description: Antiproliferative activity against human MOLT-4 cells assessed as inhibition of cell proliferation incubated for 72 hrs by CCK8 assay

[10] = system: RPMI-8226; assay: Cell cycle arrest in human RPMI8226 cells assessed as accumulation of cells at S phase at 2 uM measured after 36 hrs by flow cytometry (reference value: 50.02%); format: functional
[11] = system: RPMI-8226; assay: Antitumor activity against human RPMI8226 cells xenografted in BALB/c mouse assessed as tumor growth inhibition at 100 mg/kg, po once a day for 3 weeks relative to control; format: functional; conditions: RPMI-8226, po, 504 h, read-out: TGI
[12] = system: RPMI-8226; assay: Reduction in DEPTOR protein expression in human RPMI8226 cells incubated for 24 hrs by Western blot analysis; format: functional, cell-based; conditions: dose 1-4 µM
[13] = system: SiHa; assay: cells; conditions: Homo sapiens, 72 h
Description: Antiproliferative activity against human SiHa cells assessed as inhibition of cell proliferation incubated for 72 hrs by CCK8 assay

[14] = system: RPMI-8226; assay: Cell cycle arrest in human RPMI8226 cells assessed as accumulation of cells at G1 phase at 2 uM measured after 36 hrs by flow cytometry (reference value: 22.95%); format: functional
[15] = system: RPMI-8226; assay: Antitumor activity against human RPMI8226 cells xenografted in BALB/c mouse assessed as tumor growth inhibition at 200 mg/kg, po once a day for 3 weeks relative to control; format: functional; conditions: RPMI-8226, po, 504 h, read-out: TGI
[16] = system: RPMI-8226; assay: Induction of apoptosis in human RPMI8226 cells assessed as necrotic cells at 1 uM measured after 36 hrs by Annexin V-FITC based flow cytometry (reference value: 0.03%); format: functional
[17] = system: RPMI-8226; assay: Reduction in DEPTOR mRNA expression in human RPMI8226 cells by quantitative PCR analysis relative to control; format: functional, cell-based; conditions: dose 1-4 µM
[18] = system: RPMI-8226; assay: Induction of apoptosis in human RPMI8226 cells assessed as late apoptotic cells at 2 uM measured after 36 hrs by Annexin V-FITC based flow cytometry (reference value: 0.81%); format: functional
[19] = system: RPMI-8226; assay: Cell cycle arrest in human RPMI8226 cells assessed as accumulation of cells at S phase at 4 uM measured after 36 hrs by flow cytometry (reference value: 50.02%); format: functional
[20] = system: DLD-1; assay: cells; conditions: Homo sapiens, DLD-1, 72 h
Description: Antiproliferative activity against human DLD1 cells assessed as inhibition of cell proliferation incubated for 72 hrs by CCK8 assay

[21] = system: U2OS; assay: cells; conditions: Homo sapiens, 72 h
Description: Antiproliferative activity against human U2OS cells assessed as inhibition of cell proliferation incubated for 72 hrs by CCK8 assay

[22] = system: RPMI-8226; assay: Induction of apoptosis in human RPMI8226 cells assessed as late apoptotic cells at 1 uM measured after 36 hrs by Annexin V-FITC based flow cytometry (reference value: 0.81%); format: functional
[23] = system: U-251; assay: cells; conditions: Homo sapiens, U-251, 72 h
Description: Antiproliferative activity against human U251 cells assessed as inhibition of cell proliferation incubated for 72 hrs by CCK8 assay

[24] = system: RPMI-8226; assay: Cell cycle arrest in human RPMI8226 cells assessed as accumulation of cells at G1 phase at 1 uM measured after 36 hrs by flow cytometry (reference value: 22.95%); format: functional
[25] = system: RPMI-8226; assay: Antitumor activity against human RPMI8226 cells xenografted in BALB/c mouse assessed as reduction in tumor weight at 100 to 200 mg/kg, po once a day for 3 weeks; format: functional, organism-based; conditions: dose 100-200 mg/kg
[26] = system: RPMI-8226; assay: Induction of apoptosis in human RPMI8226 cells assessed as early apoptotic cells at 1 uM measured after 36 hrs by Annexin V-FITC based flow cytometry (reference value: 7.48%); format: functional
[27] = system: RPMI-8226; assay: Cell cycle arrest in human RPMI8226 cells assessed as accumulation of cells at G1 phase at 4 uM measured after 36 hrs by flow cytometry (reference value: 22.95%); format: functional
[28] = system: RPMI-8226; assay: Induction of apoptosis in human RPMI8226 cells assessed as necrotic cells at 4 uM measured after 36 hrs by Annexin V-FITC based flow cytometry (reference value: 0.03%); format: functional
[29] = system: RPMI-8226; assay: Cell cycle arrest in human RPMI8226 cells assessed as accumulation of cells at S phase at 1 uM measured after 36 hrs by flow cytometry (reference value: 50.02%); format: functional
[30] = system: NCI-H460; assay: cells; conditions: Homo sapiens, NCI-H460, 72 h
Description: Antiproliferative activity against human NCI-H460 cells assessed as inhibition of cell proliferation incubated for 72 hrs by CCK8 assay

[31] = system: MGC-803; assay: cells; conditions: Homo sapiens, MGC-803, 72 h
Description: Antiproliferative activity against human MGC-803 cells assessed as inhibition of cell proliferation incubated for 72 hrs by CCK8 assay

[32] = system: MCF7; assay: cells; conditions: Homo sapiens, MCF7, 72 h
Description: Antiproliferative activity against human MCF7 cells assessed as inhibition of cell proliferation incubated for 72 hrs by CCK8 assay

[33] = Toxicity in BALB/c mouse xenografted with human RPMI8226 cells assessed as change in body weight at 100 to 200 mg/kg, po once a day for 3 weeks; format: organism-based, RPMI-8226; conditions: in vivo, 504 h, dose 100-200 mg/kg
[34] = system: RPMI-8226; assay: Cell cycle arrest in human RPMI8226 cells assessed as accumulation of cells at G2 phase at 2 uM measured after 36 hrs by flow cytometry (reference value: 27.03%); format: functional
[35] = system: RPMI-8226; assay: Induction of apoptosis in human RPMI8226 cells assessed as early apoptotic cells at 2 uM measured after 36 hrs by Annexin V-FITC based flow cytometry (reference value: 7.48%); format: functional
[36] = system: HepG2; assay: cells; conditions: Homo sapiens, HepG2, 72 h
Description: Antiproliferative activity against human HepG2 cells assessed as inhibition of cell proliferation incubated for 72 hrs by CCK8 assay

[37] = system: HL-60; assay: cells; conditions: Homo sapiens, HL-60, 72 h
Description: Antiproliferative activity against human HL-60 cells assessed as inhibition of cell proliferation incubated for 72 hrs by CCK8 assay

[38] = system: RPMI-8226; assay: Induction of apoptosis in human RPMI8226 cells assessed as late apoptotic cells at 4 uM measured after 36 hrs by Annexin V-FITC based flow cytometry (reference value: 0.81%); format: functional
[39] = system: RPMI-8226; assay: Induction of apoptosis in human RPMI8226 cells assessed as viable cells at 1 uM measured after 36 hrs by Annexin V-FITC based flow cytometry (reference value: 91.68%); format: functional; conditions: read-out: Activity
[40] = system: RPMI-8226; assay: Cell cycle arrest in human RPMI8226 cells assessed as accumulation of cells at G2 phase at 1 uM measured after 36 hrs by flow cytometry (reference value: 27.03%); format: functional
[41] = system: RPMI-8226; assay: Induction of apoptosis in human RPMI8226 cells assessed as viable cells at 2 uM measured after 36 hrs by Annexin V-FITC based flow cytometry (reference value: 91.68%); format: functional; conditions: read-out: Activity

Structure (SMILES): O=c1c(O)c(-c2ccncc2)oc2c3c(ccc12)OCN(Cc1ccc(Cl)c(Cl)c1)C3
- IC50 [1]: 27.6 µM

Structure (SMILES): O=c1c(O)c(-c2ccc(Cl)c(Cl)c2)oc2c3c(ccc12)OCN(CC1CCOCC1)C3
- IC50 [1]: 4.81 µM

Structure (SMILES): O=c1c(O)c(-c2ccc(Cl)c(Cl)c2)oc2c(CN3CCOCC3)c(O)ccc12
- IC50 [1]: 4.03 µM

Structure (SMILES): COc1ccc(-c2oc3c(CN4CCCC4)c(O)ccc3c(=O)c2O)c(OC)c1
- inhibition at 250 µM [2]: 53%

Structure (SMILES): COc1ccc(-c2oc3c(CNCc4cccc(F)c4)c(O)ccc3c(=O)c2O)c(OC)c1
- inhibition at 125 µM [3]: 19%

Structure (SMILES): COc1ccc(-c2oc3c(CNCC4CCOCC4)c(O)ccc3c(=O)c2O)c(OC)c1
- inhibition at 125 µM [3]: 16%

Structure (SMILES): COc1ccc(-c2oc3c(CNCC(=O)O)c(O)ccc3c(=O)c2O)c(OC)c1
- IC50 [1]: 66.2 µM

Structure (SMILES): COc1ccc(-c2oc3c(CNCc4ccncc4)c(O)ccc3c(=O)c2O)c(OC)c1
- IC50 [1]: 56.6 µM

Structure (SMILES): O=C(O)[C@@H]1CCCN1Cc1c(O)ccc2c(=O)c(O)c(-c3cccc(Cl)c3Cl)oc12
- inhibition at 125 µM [3]: 49%

Structure (SMILES): O=c1c(O)c(-c2cccc(Cl)c2Cl)oc2c(CN3CCOCC3)c(O)ccc12
- IC50 [1]: 29.8 µM

Structure (SMILES): O=c1c(O)c(-c2ccc(Cl)c(Cl)c2)oc2c3c(ccc12)OCN(Cc1cccc(F)c1)C3
- Activity [4]: 0.54%
- Activity [5]: 15.01%
- viability at 4 µM [6]: 13.9%
- Activity [7]: 60.59%
- IC50 [1]: 1.09 µM
- IC50 [8]: 1.11 µM
- IC50 [9]: 7.02 µM
- Activity [10]: 55.5%
- inhibition in vivo at 100 mg/kg [11]: 45.4%
- Activity [12]: Dose-Dependent Effect
- IC50 [13]: > 10 µM
- Activity [14]: 18.17%
- inhibition in vivo at 200 mg/kg [15]: 61.1%
- Activity [16]: 1.55%
- Activity [17]: Dose-Dependent Effect
- Activity [18]: 16.6%
- Activity [19]: 62.51%
- IC50 [20]: 10 µM
- IC50 [21]: > 10 µM
- Activity [22]: 9.16%
- IC50 [23]: > 10 µM
- Activity [24]: 22.33%
- Activity [25]: Active
- Activity [26]: 24.26%
- Activity [27]: 22.38%
- Activity [28]: 0.28%
- Activity [29]: 51.75%
- IC50 [30]: > 10 µM
- IC50 [31]: > 10 µM
- IC50 [32]: 8.68 µM
- Activity [33]: Non-Toxic
- Activity [34]: 26.33%
- Activity [35]: 53.44%
- IC50 [36]: > 10 µM
- IC50 [37]: 6.6 µM
- Activity [38]: 25.18%
- viability at 1 µM [39]: 65%
- Activity [40]: 25.91%
- viability at 2 µM [41]: 29.4%

Structure (SMILES): COc1ccc(-c2oc3c(CC=C(C)C)c(O)cc(O)c3c(=O)c2O)cc1 [ICARITIN]
- IC50 [1]: 20.8 µM

Structure (SMILES): O=c1c(O)c(-c2cccc(Cl)c2Cl)oc2c(CN3CCCC3)c(O)ccc12
- IC50 [1]: 42.8 µM

Structure (SMILES): COc1ccc(-c2oc3c4c(ccc3c(=O)c2O)OCN(NCc2ccc(Cl)c(Cl)c2)C4)c(OC)c1
- inhibition at 125 µM [3]: 36%

Structure (SMILES): O=c1c(O)c(-c2ccc(Cl)c(Cl)c2)oc2c3c(ccc12)OCN(Cc1ccncc1)C3
- IC50 [1]: 5.9 µM

Structure (SMILES): CCN(CC)Cc1c(O)ccc2c(=O)c(O)c(-c3ccc(OC)cc3OC)oc12
- inhibition at 125 µM [3]: 25%

Structure (SMILES): COc1ccc(-c2oc3c4c(ccc3c(=O)c2O)OCN(C2CCN(C)CC2)C4)c(OC)c1
- IC50 [1]: 44.8 µM

Structure (SMILES): COc1ccc(-c2oc3c(CN4CCOCC4)c(O)ccc3c(=O)c2O)c(OC)c1
- inhibition at 125 µM [3]: 25%

Structure (SMILES): COc1ccc(-c2oc3c(CNC(Cc4ccccc4)C(=O)O)c(O)ccc3c(=O)c2O)c(OC)c1 (stereo not given)
- inhibition at 125 µM [3]: 30%

Structure (SMILES): COc1ccc(-c2oc3c(CNCc4ccccc4)c(O)ccc3c(=O)c2O)c(OC)c1
- IC50 [1]: 14.9 µM

Structure (SMILES): CCN(CC)Cc1c(O)ccc2c(=O)c(O)c(-c3cccc(Cl)c3Cl)oc12
- IC50 [1]: 60.4 µM

Structure (SMILES): CN1CCC(N2COc3ccc4c(=O)c(O)c(-c5cccc(Cl)c5Cl)oc4c3C2)CC1
- IC50 [1]: 4.29 µM
